# Assay results published in patent US20070141072A1, “Use of multifunctional transcription factor yin-yang-1 and variants thereof for treating illnesses, especially type 1 diabetes” (ERNST-MORITZ-ARNDT-UNIVERSITAT GREIFSWALD, priority 2002, published 2007).
# Tested on: calbindin-D28k
# Test: Calbindin-D28k protein expression in isolated islets of Langerhans, Western blot
# Format: cell-based, rat
# Conditions: increasing calcium concentration in the medium
# Description: There were however significant differences in protein expression using Western blot analysis. The calcium-binding protein, calbindin-D28k, was already twice as high in BB.6S rat islets under basal conditions as that of BB/OK rats. […] Calbindin-D28k is a cytosolic calcium-binding protein, which is primarily expressed in the kidney, but also in the pancreas and brain, and which can prevent apoptotic (gene controlled) cell death (41, 42). In functional terms it is supposed that calbindin-D28k is involved in regulation of calcium reabsorption.
# Calbindin-D28k protein expression using Western blot analysis under basal conditions and with increasing calcium concentration in the medium.
smiles,measurement,setting,value
[Ca+2] [calcium],protein expression of calbindin-D28k,BB.6S islets,clearly increased
same,protein expression of calbindin-D28k,BB/OK islets,almost uninfluenced
